In US10472661B2, “Method for increasing glycosylation of a composition comprising steviol glycosides” (DSM IP ASSETS B.V., priority 2014, dated 2019):

Experiments:
[1] = suitable for use in carbonated beverages and many other foods; cited from earlier work
[2] = tested on: CFE obtained from the Yarrowia lipolitica steviol glycoside producing strains; test: bioconversion of rebaudiosideA with CFE of Yarrowia lipolitica steviol glycoside producing strains, UDP-glucose, LC-MS; format: biochemical; conditions: rebaudiosideA 100-500 μM; CFE 0.1 mg/mL; UDP-glucose 1 mM; products rebaudioside D and rebaudioside M
Source text: Methods to obtain yeast strains expressing constructs encoding the steviol glycoside production pathway are described in WO2013/110673 and WO2015/007748. Here, different Yarrowia lipolitica strains were used: the parent strain (as negative control) and strains expressing the whole steviol glycoside production pathway. Cells were grow o/n in YEPD medium. After determining the optical density at 600 nm (respectively 1.00×10^10 cells/mL for the parent strain cultivation and 6.00-8.57×10^9 cells/mL for different Yarrowia lipolitica steviol glycoside producing strains), cells were lysed with 0.5 mm zirconia beads (see example 2 for details). The protein concentration of the thus obtained CFE were determined using Bradford reagent. The actual obtained protein concentrations ranged from 0,453 mg/mL to 0,771 mg/mL.
A dilution series of rebaudiosideA stock solutions was prepared at 0, 500, 1000, 1500, 2000 and 2500 μM in Van Eunen buffer. The CFE's were diluted in Van Eunen buffer to a concentration of 0.125 mg/m L. A 5 mM stock solution of UDP-glucose was prepared.
The reactions were set-up as described in example 2, only now the concentration of the CFE in the final reaction was doubled. Multiple samples were taken to follow the reactions.
In the reactions the final concentrations were: CFE, 0.1 mg/mL; UDP-glucose, 1 mM; rebaudiosideA, at 0, 100, 200, 300, 400, 500 μM. […]

[3] = molecular target: T1, UGT3-SEQ ID NO: 74 (Stevia rebaudiana, UniProt Q6VAA6); format: biochemical; conditions: CFE 0.05 mg/mL, UDP-glucose 1 mM
T1 construct: made in house; host or cells: Saccharomyces cerevisiae; unpurified soluble cell extract (CFE) from bead-lysed biomass
T1 sequence (Q6VAA6 1-460): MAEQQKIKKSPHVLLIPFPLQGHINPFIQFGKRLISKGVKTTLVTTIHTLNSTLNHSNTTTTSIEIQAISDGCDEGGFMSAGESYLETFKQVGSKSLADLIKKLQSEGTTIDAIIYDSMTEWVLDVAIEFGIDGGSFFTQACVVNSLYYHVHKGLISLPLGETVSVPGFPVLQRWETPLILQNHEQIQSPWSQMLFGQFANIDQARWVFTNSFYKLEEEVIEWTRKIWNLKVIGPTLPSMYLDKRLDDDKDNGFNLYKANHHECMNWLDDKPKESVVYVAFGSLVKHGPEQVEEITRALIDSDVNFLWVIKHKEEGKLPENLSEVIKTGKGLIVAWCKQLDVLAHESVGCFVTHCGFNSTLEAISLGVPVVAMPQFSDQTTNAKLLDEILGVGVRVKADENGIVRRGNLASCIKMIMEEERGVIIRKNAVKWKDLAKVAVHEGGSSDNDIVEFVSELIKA

[4] = Type II diabetics; studies suggest; cited from earlier work
[5] = mildly hypertensive patients; studies suggest; cited from earlier work
[6] = sweetness relative to sucrose; cited from earlier work

Compound: C=C1C[C@@]23CC[C@H]4[C@@](C)(CCC[C@@]4(C)C(=O)O[C@@H]4O[C@H](CO)[C@@H](O)[C@H](O)[C@H]4O)[C@@H]2CC[C@]1(O[C@@H]1O[C@H](CO)[C@@H](O)[C@H](O[C@@H]2O[C@H](CO)[C@@H](O)[C@H](O)[C@H]2O)[C@H]1O[C@@H]1O[C@H](CO)[C@@H](O)[C@H](O)[C@H]1O)C3 [rebaudioside A]
- heat and pH stability [1]: heat and pH stable
- glycosylated products detected by LC-MS [2]: two glycosylated products of rebaudioside A were detected
- Vmax of rebaudiosideA formation ([3]; substrate rebaudioside B 0-200 μM, 30° C., calculated with GraphPad 5): 0.0549±0.004 μmol/mg protein/min

Compound: C=C1C[C@@]23CC[C@H]4[C@@](C)(CCC[C@@]4(C)C(=O)O[C@@H]4O[C@H](CO)[C@@H](O)[C@H](O)[C@H]4O)[C@@H]2CC[C@]1(O[C@@H]1O[C@H](CO)[C@@H](O)[C@H](O)[C@H]1O[C@@H]1O[C@H](CO)[C@@H](O)[C@H](O)[C@H]1O)C3 [stevioside]
- heat and pH stability [1]: heat and pH stable
- effect on blood glucose levels [4]: can reduce blood glucose levels
- effect on blood pressure [5]: can reduce blood pressure

Compound: C=C1C[C@@]23CC[C@H]4[C@@](C)(CCC[C@@]4(C)C(=O)O[C@@H]4O[C@H](CO)[C@@H](O)[C@H](O)[C@H]4O[C@@H]4O[C@H](CO)[C@@H](O)[C@H](O)[C@H]4O)[C@@H]2CC[C@]1(O[C@@H]1O[C@H](CO)[C@@H](O)[C@H](O[C@@H]2O[C@H](CO)[C@@H](O)[C@H](O)[C@H]2O)[C@H]1O[C@@H]1O[C@H](CO)[C@@H](O)[C@H](O)[C@H]1O)C3 [rebaudioside D]
- times sweeter than sucrose [6]: about 200 times

Compound: rebaudioside B
- glycosylation of rebaudiosideB into rebaudiosideA by spent biomass derived material ([3]; rebaudioside B 50-200 μM, samples 0-30 min, FIG. 2): very efficiently glycosylated
